Measured values from publication PMC8609367 (mBio, 2021).
In brackets after ≈: the same amount, converted by molar mass. Several values for one entry are separate records, joined by “and”; a condition that tells them apart may be missing. Equal entries are not always repeated.

Experiments:
[1] = target: T1, hFKBP12 (Homo sapiens, UniProt P62942); assay: ITC binding to human FKBP12
T1 construct: His6 (thrombin-cleavable) (N, cleaved yes); made in house; host or cells: E. coli BL21(DE3)
Procedure: (§1) The lower panel represents the integrated heat changes upon binding (kilocalories/mole) corrected for the protein and ligand heat of dilution. Fitting was performed using the MicroCal Origin software. Download FIG S2, TIF file, 0.9 MB.
(§2) After the size exclusion purification, the proteins were concentrated to ∼2 mg/ml using a 3,000-MWCO Amicon concentrator. Proteins were exhaustively dialyzed at 4°C in the isothermal titration calorimetry (ITC) buffer (50 mM sodium phosphate, 50 mM sodium chloride, pH 7.0). Experiments were performed using a VP-ITC instrument (MicroCal Inc., Northampton, MA) at 25°C. All solutions were degassed under vacuum at 25°C for 15 min immediately before use. […] was loaded into the syringe at a concentration of 25 μM and titrated in by a first injection of 2 μl followed by 22 injections of 6 μl. Following each injection, the cell was equilibrated for 3 min. […] The proteins were loaded in the cell at a concentration of 10 μM with constant stirring at 307 rpm (25°C). […] The enthalpy of binding (ΔH, kilocalories/mole) was determined by integration of the injection peaks minus the controls for the heat of dilution (equivalent experiments without the ligand and without the protein). The MicroCal Origin software (OriginLab Corp., Northampton, MA) was used for a variety of binding models.

[2] = target: T2, AfFKBP12 (Aspergillus fumigatus, UniProt Q4WLV6); assay: biochemical; type: binding; settings: for TΔS / ΔG° / ΔH / Stoichiometry / Kd: ITC, 25°C, average from triplicates; for Stoichiometry: ligand-FKBP12
T2 construct: His6 (thrombin-cleavable) (N, cleaved yes); made in house; host or cells: E. coli BL21(DE3)
T2 sequence (Q4WLV6 1-112): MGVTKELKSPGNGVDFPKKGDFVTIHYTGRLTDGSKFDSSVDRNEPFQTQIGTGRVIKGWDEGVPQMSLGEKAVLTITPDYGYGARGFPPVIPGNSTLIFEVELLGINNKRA
Procedure: as §1, §2

[3] = target: T3, McFKBP12 (Mucor circinelloides, UniProt U3N5X4); assay: ITC binding to M. circinelloides FKBP12; settings: for Kd / Stoichiometry / TΔS / ΔG° / ΔH: ITC, 25°C, average from triplicates
T3 sequence (U3N5X4 1-108): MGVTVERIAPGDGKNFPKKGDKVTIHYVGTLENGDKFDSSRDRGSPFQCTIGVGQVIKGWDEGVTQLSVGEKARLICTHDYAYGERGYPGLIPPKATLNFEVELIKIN
Procedure: as §1, §2

[4] = Solubility noted in ITC set-up; type: physicochemical; settings: restricting the usable concentration in ITC
Procedure: as §2

[5] = test system: Cryptococcus neoformans; parameters: method as in PMID 31537789; settings: C. neoformans; cited from earlier work
[6] = test system: Candida albicans; parameters: method as in PMID 31537789; settings: in vitro; cited from earlier work
[7] = test system: interleukin-2 (IL-2) production in primary murine CD4+ T cells; parameters: method as in PMID 31537789; settings: reduction of IL-2 production in primary murine CD4+ T cells; cited from earlier work
[8] = test system: cryptococcal model of invasive fungal infection; parameters: method as in PMID 31537789; settings: murine model; cited from earlier work
[9] = test system: T helper cell-dependent germinal center B cell response; parameters: method as in PMID 31537789; settings: cited from earlier work
[10] = test system: A. fumigatus strains expressing McFKBP12 or McFKBP12-Y88F; assay: Growth assay of A. fumigatus strains expressing FKBP12 variants in presence of FK506; type: cell-based, Aspergillus fumigatus
Procedure: A. fumigatus wild-type strain akuB^KU80 was used for growth and recombinant strain generation experiments. A. fumigatus wild-type or recombinant strains were cultured on glucose minimal medium (GMM) or RPMI liquid medium at 37°C for 24- or 48-h- periods. […] All growth experiments were repeated as technical triplicates, each also as biological triplicates.

[11] = parameters: method as in PMID 1380976; settings: cited from earlier work
[12] = test system: FKBP12; parameters: method as in PMID 1380976; settings: cited from earlier work
[13] = parameters: method as in PMID 1380976; settings: cited from earlier work; remark: listed apart in the source
[14] = ITC, 25°C, average from triplicates

T1 sequence (P62942 whole entry): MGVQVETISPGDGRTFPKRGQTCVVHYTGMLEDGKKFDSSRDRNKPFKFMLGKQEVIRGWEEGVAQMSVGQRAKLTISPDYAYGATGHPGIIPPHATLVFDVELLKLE

C=CCC1C=C(C)CC(C)CC(OC)C2OC(O)(C(=O)C(=O)N3CCCCC3C(=O)OC(C(C)=CC3CCC(O)C(OC)C3)C(C)C(O)CC1=NNC(C)=O)C(C)CC2OC (stereo not drawn) [APX879]
Reduction in affinity compared to FK506 ([1]; ITC KD, APX879 versus FK506): ~40 fold
Kd [1, 14]: ~120 nM and 119 nM
Stoichiometry [1, 14]: 1.41 ± 0.03
TΔS [1, 14]: 7.4 ± 0.8 kcal/mol
ΔG° [1, 14]: -9.2 ± 0.9 kcal/mol
ΔH [1, 14]: -1.8 ± 0.4 kcal/mol
Reduction in affinity compared to FK506 ([2]; ITC KD, APX879 versus FK506): 100 fold
TΔS [2]: 7.2 ± 1.0 kcal/mol
ΔG° [2]: -8.0 ± 1.0 kcal/mol
ΔH [2]: -1.2 ± 0.4 kcal/mol
Stoichiometry [2]: 1.96 ± 0.13
Kd [2]: 462 nM
Reduction in affinity compared to FK506 ([3]; ITC KD, APX879 versus FK506): ~40 fold
Kd [3]: ~120 nM and 126 nM
Stoichiometry [3]: 0.93 ± 0.17
TΔS [3]: 7.4 ± 0.2 kcal/mol
ΔG° [3]: -9.4 ± 0.2 kcal/mol
ΔH [3]: -2.0 ± 0.1 kcal/mol
Solubility [4]: low solubility
Reduction in antifungal efficacy compared to FK506 [5]: 17 fold
MIC [6]: 8 µg/mL (≈ 9.3 µM)
Reduced immunosuppressive activity compared to FK506 [7]: 71 fold
Efficacy in cryptococcal model [8]: confirmed efficacy
Ability to stimulate T helper cell-dependent germinal center B cell response ([9]; in comparison to FK506 treatment, animal models): significant reduction
Immunosuppressive activity in vivo ([9]; murine model): reduced immunosuppressive activity

C=CC[C@@H]1/C=C(\C)C[C@H](C)C[C@H](OC)[C@H]2O[C@@](O)(C(=O)C(=O)N3CCCC[C@H]3C(=O)O[C@H](/C(C)=C/[C@@H]3CC[C@@H](O)[C@H](OC)C3)[C@H](C)[C@@H](O)CC1=O)[C@H](C)C[C@@H]2OC [FK506, reference compound]
Stoichiometry [1, 14]: 1.09 ± 0.03
TΔS [1, 14]: -3.3 ± 1.2 kcal/mol
ΔG° [1, 14]: -12.0 ± 1.6 kcal/mol
ΔH [1, 14]: -15.0 ± 1.1 kcal/mol
TΔS [2]: 4.6 ± 0.3 kcal/mol
ΔG° [2]: -11.3 ± 0.4 kcal/mol
ΔH [2]: -6.7 ± 0.3 kcal/mol
Stoichiometry [2]: 2.02 ± 0.06
Kd [2]: 4.7 ± 0.6 nM
Kd [3]: 3 ± 0.7 nM
Stoichiometry [3]: 1.06 ± 0.06
TΔS [3]: 1.9 ± 0.2 kcal/mol
ΔG° [3]: -11.7 ± 0.2 kcal/mol
ΔH [3]: -9.8 ± 0.1 kcal/mol
FK506 sensitivity of A. fumigatus strain expressing McFKBP12 ([10]; Affkbp12 locus replaced with Mcfkbp12, increasing concentrations of FK506): does not restore A. fumigatus FK506 sensitivity
FK506 sensitivity of A. fumigatus strain expressing McFKBP12-Y88F ([10]; McFKBP12-Y88F mutant): restoration of FK506 sensitivity
Toxicity in animal models ([9]; animal models): acute toxicity

CC[C@@H]1/C=C(\C)[C@@H](O)[C@H](C)C[C@H](OC)[C@H]2O[C@@](O)(C(=O)C(=O)N3CCCC[C@H]3C(=O)O[C@H](/C(C)=C/[C@@H]3CC[C@@H](O)[C@H](OC)C3)[C@H](C)[C@@H](O)CC1=O)[C@H](C)C[C@@H]2OC [L-685,818]
Immunosuppressive activity [11]: nonimmunosuppressive
Binding to FKBP12 [12]: still binds to FKBP12
Antifungal activity [13]: retains antifungal activity
